{"source": "patent US20040197838A1", "about": "“Phosphorylated histone h2b as apoptosis marker” (priority 2001, published 2004)", "key": {"HL-60 cells [1]": {"system": "HL-60 cells", "experiment": "Caspase 3 inhibitor pre-incubation before VP16, Western analysis of Mst1 cleavage and H2B Ser14 phosphorylation", "format": "cell-based, human", "settings": "then VP16 for 4 hours", "procedure": "(§1) Western blot analysis is performed as described in (Briggs et al., (2001) Genes Dev 15, 3286-3295) 1:1000 of α-phos (S14) H2B, 1:2500 of α-N-Mst1, 1:400 of α-myc (9E10 from Santa Cruz), 1:800 of α-PARP (UBI), 1:1000 of α-phos H2A.X (UBI), and 1:5000 of ax-Acetyl H4 primary antibodies were used. HRP-conjugated rabbit secondary (Amersham Pharmacia) was used at 1:5000. For chemiluminescence, the ECL plus kit (Amersham Pharmacia) was used for detection.\nIf H2B (Ser14) phosphorylation is dependent on the cleavage of Mst1, this histone modification should be sensitive to documented caspase 3 inhibitors such as the DEVD peptide. To test this prediction, HL-60 cells were pre-incubated with varying amounts of z-DEVD-fmk (Trevigen) before subsequent treatment with VP16 for 4 hours. Cell extracts were then harvested for western analysis. […] Accordingly, H2B is likely phosphorylated in vivo at Ser14 by the caspase 3-generated form of Mst1."}, "HL-60 cells [2]": {"system": "HL-60 cells", "experiment": "Western blots of histones from HL-60 cells after cytotoxic agent treatment", "format": "cell-based, human", "settings": "for Levels of H2B S14 Phons Induction: etoposide 20 ug/mL, anisomycin 25 ng/mL, anti-Fas 15 ng/mL", "procedure": "(§2) Cell culture, drug and UV treatment, and harvesting for protein and DNA: HL-60 cells were cultured in RPMI with 10% FBS whereas 293T, HeLa, HepG2, and IMR90 were grown in DMEM with 10% FBS. Etoposide, anisomycin, […] and anti-Fas were purchased from Sigma. To induce apoptosis, drugs were used in these concentration 20 ug/mL for etoposide, 25 ng/mL anisomycin and 15 ng/mL anti-Fas. For UV induction of apoptosis, 40-100 J/m^2 was used (Biorad GS Gene Linker UV chamber). After induction of apoptosis the growth media was changed and harvested at various times afterward. Control cells were either treated with DMSO or mock-treated.\nAfter the desired treatment, cells were subjected to any of the following: resuspension in SDS-lysis buffer (Laemmli's sample buffer), nuclear extraction, acid extraction for histones, or genomic DNA extraction. Nuclei were isolated by lysis in detergent and low speed spin as described in Strahl et al., (2001) Curr Biol 11, 996-1000. These nuclei can either be salt extracted for nuclear proteins (see below) or acid extracted in 0.4 N H2SO4. After incubating on ice for 2-4 hours, high speed centrifugation is done to remove the insoluble pellet. 5.4% of Percholic acid was added to the supernatant and the precipitated histones were resuspended in water.\nas §1\n(§3) Initially, HL-60 (human leukemia cell line) cells were treated with etoposide (VP-16) to induce apoptosis. After treatment for various length of time, histones were isolated by acid extraction and examined by Western blot using the S14P antibody. […] To confirm the induction of apoptosis, soluble DNA was extracted from parallel samples at identical time points. The appearance of a ‘DNA ladder’, indicative of apoptotic DNA fragmentation at 4 hour post treatment, coincides precisely with the onset of H2B Ser14 phosphorylation. Furthermore, an increase of H2B S14 phosphorylation was observed that correlates with the exposure time to the etoposide.\n(§4) After Cytotoxic agent treatments, cells were harvested. The level of H2B S14 phosphorylation is determined by Western blots using ePhos (S14) H2B."}, "HL-60 cells [3]": {"system": "HL-60 cells", "experiment": "Apoptotic DNA fragmentation (DNA ladder) after VP-16 treatment", "format": "cell-based, human", "procedure": "Genomic DNA was harvested by lysing the cell pellet in 10 mM Tris pH 9.0, 1 mM EDTA, 10 mM NaCl, 1% w/v SDS, 1 mg/mL of proteinase K at 50° C. for 4-5 hours. To remove proteins, a phenol/chloroform extraction was performed and then the DNA was precipitated in 0.3 M sodium acetate and 70% Ethanol. After centrifugation, the pellet was resuspended in TE and the RNA was digested by adding 1 mg/mL Rnase A for 1 hour at room temp. DNA was separated in 1.2% agarose TAE gel.\nas §3"}, "HepG2": {"system": "HepG2", "experiment": "Western blot for H2B S14 phosphorylation after cytotoxic agent treatment", "format": "cell-based", "procedure": "as §2\nAfter the desired treatment, cells were subjected to any of the following: resuspension in SDS-lysis buffer (Laemmli's sample buffer), nuclear extraction, acid extraction for histones, or genomic DNA extraction. Nuclei were isolated by lysis in detergent and low speed spin as described in Strahl et al., (2001) Curr Biol 11, 996-1000. These nuclei can either be salt extracted for nuclear proteins (see below) or acid extracted in 0.4 N H2SO4. After incubating on ice for 2-4 hours, high speed centrifugation is done to remove the insoluble pellet. […]\nas §4"}, "[4]": {"target": "histone H2B (substrate of the in vitro kinase reactions)"}}, "data": [{"molecule": "z-DEVD-fmk", "values": [{"measurement": "H2B phosphorylation", "setting": "HL-60 cells [1]; 20 mM inhibitor", "result": "only a modest decrease"}, {"measurement": "Proportion of truncated Mst1 over full length Mst1", "setting": "HL-60 cells [1]; 20 mM inhibitor", "result": "only a modest decrease"}, {"measurement": "H2B Ser14 phosphorylation", "setting": "HL-60 cells [1]; 200 mM inhibitor", "result": "inhibited"}, {"measurement": "Mst1 cleavage", "setting": "HL-60 cells [1]; 200 mM inhibitor", "result": "inhibited"}]}, {"molecule": "COc1cc([C@@H]2c3cc4c(cc3[C@@H](O[C@@H]3O[C@@H]5CO[C@@H](C)O[C@H]5[C@H](O)[C@H]3O)[C@H]3COC(=O)[C@H]23)OCO4)cc(OC)c1O", "note": "[Etoposide (VP16), Etoposide]", "values": [{"measurement": "Time of H2A.X phosphorylation after treatment", "setting": "HL-60 cells [2]; Western blot", "result": "one"}, {"measurement": "Time post treatment at which H2B phosphorylation signal is strongly enhanced", "setting": "HL-60 cells [2]; Western blot with S14P antibody", "result": "around 4 hours"}, {"measurement": "Levels of H2B S14 Phons Induction", "setting": "HL-60 cells [2]; Western blot", "result": "High"}, {"measurement": "Time post treatment of appearance of DNA ladder (apoptotic DNA fragmentation)", "setting": "HL-60 cells [3]", "result": 4, "unit": "h"}]}, {"molecule": "COS(C)(=O)=O", "note": "[MMS]", "values": [{"measurement": "Levels of H2B S14 Phons Induction", "setting": "HepG2", "result": "Medium"}]}, {"molecule": "COc1ccc(C[C@H]2NC[C@H](O)[C@H]2OC(C)=O)cc1", "note": "[Anisomycin]", "values": [{"measurement": "Levels of H2B S14 Phons Induction", "setting": "HL-60 cells [2]; Western blot", "result": "High"}]}, {"molecule": "myc-tagged C-terminal truncated form of Mst1 (protein) METVQLRNPPRRQLKKLDEDSLTKQPEEVFDVLEKLGEGSYGSVYKAIHKETGQIVAIKQVPVESDLQEIIKEISIMQQCDSPHVVKYYGSYFKNTDLWIVMEYCGAGSVSDIIRLRNKTLTEDEIATILQSTLKGLEYLHFMRKIHRDIKAGNILLNTEGHAKLADFGVAGQLTDTMAKRNTVIGTPFWMAPEVIQEIGYNCVADIWSLGITAIEMAEGKPPYADIHPMRAIFMIPTNPPPTFRKPELWSDNFTDFVKQCLVKSPEQRATATQLLQHPFVRSAKGVSILRDLINEAMDVKLKRQESQQREVDQDDEENSEEDEMD", "values": [{"measurement": "IP kinase reaction with non-radioactive ATP, Western blot with the S14P antibody", "setting": "[4]", "result": "both Mst1 FL and DC phosphorylate H2B at Ser14 as detected by the S14P antibody"}, {"measurement": "in vitro kinase assay on myc immunoprecipitates, with g(32P)-ATP or cold ATP", "setting": "[4]", "result": "Strong phosphorylation of H2B was detected with both full length and DC Mst1"}]}, {"molecule": "myc-tagged full length Mst1 (protein) METVQLRNPPRRQLKKLDEDSLTKQPEEVFDVLEKLGEGSYGSVYKAIHKETGQIVAIKQVPVESDLQEIIKEISIMQQCDSPHVVKYYGSYFKNTDLWIVMEYCGAGSVSDIIRLRNKTLTEDEIATILQSTLKGLEYLHFMRKIHRDIKAGNILLNTEGHAKLADFGVAGQLTDTMAKRNTVIGTPFWMAPEVIQEIGYNCVADIWSLGITAIEMAEGKPPYADIHPMRAIFMIPTNPPPTFRKPELWSDNFTDFVKQCLVKSPEQRATATQLLQHPFVRSAKGVSILRDLINEAMDVKLKRQESQQREVDQDDEENSEEDEMDSGTMVRAVGDEMGTVRVASTMTDGANTMIEHDDTLPSQLGTMVINAEDEEEEGTMKRRDETMQPAKPSFLEYFEQKEKENQINSFGKSVPGPLKNSSDWKIPQDGDYEFLKSWTVEDLQKRLLALDPMMEQEIEEIRQKYQSKRQPILDAIEAKKRRQQNF", "values": [{"measurement": "IP kinase reaction with non-radioactive ATP, Western blot with the S14P antibody", "setting": "[4]", "result": "both Mst1 FL and DC phosphorylate H2B at Ser14 as detected by the S14P antibody"}, {"measurement": "in vitro kinase assay on myc immunoprecipitates, with g(32P)-ATP or cold ATP", "setting": "[4]", "result": "Strong phosphorylation of H2B was detected with both full length and DC Mst1"}]}, {"molecule": "myc-tagged kinase dead Mst1 (protein) METVQLRNPPRRQLKKLDEDSLTKQPEEVFDVLEKLGEGSYGSVYKAIHKETGQIVAIRQVPVESDLQEIIKEISIMQQCDSPHVVKYYGSYFKNTDLWIVMEYCGAGSVSDIIRLRNKTLTEDEIATILQSTLKGLEYLHFMRKIHRDIKAGNILLNTEGHAKLADFGVAGQLTDTMAKRNTVIGTPFWMAPEVIQEIGYNCVADIWSLGITAIEMAEGKPPYADIHPMRAIFMIPTNPPPTFRKPELWSDNFTDFVKQCLVKSPEQRATATQLLQHPFVRSAKGVSILRDLINEAMDVKLKRQESQQREVDQDDEENSEEDEMDSGTMVRAVGDEMGTVRVASTMTDGANTMIEHDDTLPSQLGTMVINAEDEEEEGTMKRRDETMQPAKPSFLEYFEQKEKENQINSFGKSVPGPLKNSSDWKIPQDGDYEFLKSWTVEDLQKRLLALDPMMEQEIEEIRQKYQSKRQPILDAIEAKKRRQQNF", "values": [{"measurement": "in vitro kinase assay on myc immunoprecipitates, with g(32P)-ATP or cold ATP", "setting": "[4]", "result": "the kinase dead form Mst1 (which contains a single point mutation) did not phosphorylate H2B"}]}]}
